The values below come from PMC9467586, “Development of novel 9-O-substituted-13-octylberberine derivatives as potential anti-hepatocellular carcinoma agents” (Journal of Enzyme Inhibition and Medicinal Chemistry, 2022).

For orientation: melting point means the temperature of the solid-liquid transition. As usually defined, the IC50 is the concentration at which inhibition is half-maximal.

Data set [1] has as its system HepG2 cells. Nature of the data set: Annexin V-FITC/PI apoptosis assay, flow cytometry. The class given is cell-based, human. Particulars: 72 h (control 6.28%). The method, then: Briefly, after treatment with or without 6k at indicated concentrations for 72 h, the cells were washed twice in PBS, centrifuged and resuspended in 500 μL AnnexinV binding buffer. The cells were then harvested, washed and stained with 5 μL Annexin V-FITC and 5 μL PI in the darkness for 15 min. Apoptosis was analysed using a FACS Calibur flow cytometer (BectoneDickinson, San Jose, CA, USA).
On the technique in general: Flow cytometry measures light scatter and fluorescence of single cells or particles in a stream.

In data set [2] the test system is HepG2 cells. The data set can be described thus: In vitro antiproliferative MTT assay, HepG2 cells. The class given is cell-based, human. Particulars: Homo sapiens, 72 h, mean ± SD (n = 3), read-out: IC50 (antiproliferative activity against HepG2 cells). The method, then:
(§1) HepG2, Sk-Hep-1, Huh-7, Hep3B and L-02 cells were purchased from Nanjing Key Gen Biotech Co. Ltd. (Nanjing, China). The cytotoxicity of test compounds was determined using an MTT assay. Briefly, the cell lines were incubated at 37 °C in a humidified 5% CO2 incubator for 24 h in 96-microwell plates. After medium removal, 100 μL of culture medium with 0.1% DMSO containing test compounds at different concentrations was added to each well and incubated at 37 °C for another 72 h. The MTT (5 mg/mL in PBS) was added and incubated for another 4 h, the optical density was detected with a microplate reader at 490 nm. The IC50 values were calculated according to the dose-dependent curves. All the experiments were repeated in at least three independent experiments.

For data set [3], the system named is p-cdc25c, cdc2 and cyclin B1. The data set can be described thus: Western blot of G2/M-related proteins. Particulars: HepG2, 72 h, concentration-dependent. The class given is cell-based, human. The method, then:
HepG2 cells were incubated with different doses of 6k for 72 h. Cells were collected, centrifuged, and washed two times with ice-cold PBS. The pellet was then re-suspended in lysis buffer. After the cells were lysed on ice for 20 min, lysates were centrifuged at 13000 g at 4 °C for 15 min. The protein concentration in the supernatant was determined using the BCA protein assay reagents. Equal amounts of protein (20 μg) were resolved using sodium dodecyl sulfate-polyacrylamide gel electrophoresis (SDS-PAGE) (10–12% acrylamide gels) and transferred to PVDF membrane. Membranes were blocked for 1 h at room temperature. Membranes were then incubated with primary antibodies against p-cdc25c, cdc2, cyclin B1, Bax, Bcl-2, cytochrome C, caspase-3, VDAC1 and β-actin, the membrane being gently rotated overnight at 4 °C. The bound antibodies were detected using horseradish peroxidase (HRP)-conjugated second antibodies and visualised by the enhanced chemiluminescent reagent.
For orientation: In western blotting, separated proteins are transferred to a membrane and probed.

In data set [4] the test system is HepG2 cells. The data set can be described thus: Mitochondrial membrane potential (MMP) measurement with JC-1. It counts as cell-based, human. Particulars: 72 h (control 1.90%). The method, then:
HepG2 cells were incubated with 6k as described above. After incubation for 72 h, the cells were washed in PBS and resuspended in 500 μL JC-1 incubation buffer at 37 °C for 15 min. Then, […] was immediately assessed for a red fluorescence using a microplate reader (ELx80, Bio-Tek, USA). The fluorescent signal of monomers was measured with an excitation wavelength of 488 nm. The percentage of cells with healthy or collapsed mitochondrial membrane potentials was monitored by flow cytometry analysis (BectoneDickinson, San Jose, CA, USA).

For a further data set, the system named is Sk-Hep-1 cells. The data set can be described thus: In vitro antiproliferative MTT assay, Sk-Hep-1 cells. The class given is cell-based, human. Particulars: Homo sapiens, SK-HEP1, 72 h, mean ± SD (n = 3). The method, then: as §1
On the technique in general: Formazan colour is commonly taken as a measure of viable cells.

For another data set, the system named is duplex DNA (F10T). The data set can be described thus: FRET-melting assay, F10T (duplex DNA model). The class given is binding. Particulars: 2 μM compounds.

On to `CCCCCCCCc1c2[n+](cc3c(OCCCCCCCCN4CCN(C)CC4)c(OC)ccc13)CCc1cc3c(cc1-2)OCO3.[Br-]` [Compound 6k, 10-Methoxy-9-((8–(4-methylpiperazin-1-yl)octyl)oxy)-13-octyl-5,6-dihydro-[1,3]dioxolo[4,5-g]isoquinolino[3,2-a]isoquinolin-7-ium bromide], for which the melting point was 151 to 153 °C. Further, the “total apoptotic cells (Q2 + Q3)” value in the data set with HepG2 cells [1] (HepG2, 0.25 μM) came to 16.42%. Besides, in the data set with HepG2 cells [1] (HepG2, 0.50 μM), the “total apoptotic cells (Q2 + Q3)” value is 34.29%. Further, the “total apoptotic cells (Q2 + Q3)” value in the data set on HepG2 cells [1] (HepG2, 1.0 μM) is recorded as 59.17%. Moreover, the half-inhibitory concentration (IC50) with HepG2 cells [2] came to 760 ± 60 nM. Besides, in data set [3], the cdc2 result is given as “inhibited cdc2 kinase activation”, the “cdc25c phosphorylation (p-cdc25c)” value is recorded as “significantly promoted cdc25c phosphorylation” and the “cyclin B1” value is reported as “reduced cyclin B1 binding”. For the same compound, the “percentage of cells with green fluorescence (JC-1)” value in the data set on HepG2 cells [4] (HepG2, 0.25 μM) is reported as 10.33%. For the same compound, in the data set on HepG2 cells [4] (HepG2, 1.0 μM), the “percentage of cells with green fluorescence (JC-1)” value was 37.52%. Besides, in the data set with Sk-Hep-1 cells, the IC50 came out at 1690 ± 70 nM. The “ΔTm(B) = Tm(F10T + compound) - Tm(F10T)” value with duplex DNA (F10T) was found to be 0.8 °C.
